# Assay: Plasma concentration after subcutaneous injection in mice (pharmacokinetic profile)
# Type: in vivo
# Settings: 50 mg/kg subcutaneous
# Protocol: FIG. 5 is a graph showing the pharmacokinetic profile of ISIS 22023 following 50 mg/kg subcutaneous injection in mice. Plasma samples were analyzed at various time points using the oligonucleotide detection method of the present invention.
# Detection of ISIS 22023 after injection in mice ISIS 22023 (50 mg/kg) was injected subcutaneously into mice and the plasma concentration was determined at various times post-injection by the method described in Example 1. […] The predicted and observed half lives corresponded very well.
substance,measurement,value
"ISIS 2302: antisense oligonucleotide GCCCAAGCTGGCATCCGTCA (SEQ ID NO:2) (listed as DNA, chemistry not given here)",elimination half-life,very long

# Source: US8163477B2, “Nuclease-based method for detecting and quantitating oligonucleotides” (Isis Pharmaceuticals, Inc, priority 2000, dated 2012)
